Assay results reported in PubChem BioAssay AID179 (DTP/NCI, 2004).
Activity calls are given as the source filed them.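 How the source made its calls: active means compounds giving half or more protection of infected cells from virus-caused growth loss, again on retest; inactive means the rest.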

Test system: CEM cells HIV-1 protection, formazan growth assay
Assay: NCI AIDS Antiviral Assay
Details: for IC50: measured here: growth of uninfected CEM cells
In short: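 Human CEM cells, uninfected and HIV-1-infected, exposed to five drug concentrations; growth measured by soluble formazan assay and scored as percent protection from infection, with protecting compounds retested.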

SMILES | outcome | EC50 [µM] | IC50 [µM]
C[C@]12CC[C@H](O)CC1=CC[C@@H]1C2CC[C@]2(C)NC(=O)CCC12 (some centres not stated) | inactive |  | 
COc1cc(O)c(C(=O)/C=C/c2ccc(OC)c(OCc3ccccc3)c2)c(OC)c1 | inactive |  | 
COc1ccc(NC2Oc3cc4c(cc3C(c3cc(OC)c(OC)c(OC)c3)C2C)OCO4)cc1 (configuration not stated) |  | > 20 | 0.398
Cc1cn(C2OCC(CO)C2N=[N+]=[N-])c(=O)[nH]c1=O (configuration not stated) |  | > 200 | > 200
COc1ccc(C2OC(c3ccncc3)=NN2C)cc1F (configuration not stated) |  | > 200 | > 100
CC1(CC2=C(C(=O)NCCO[Si](C)(C)C(C)(C)C)C3(OCCO3)C2=O)OCCO1 |  | > 200 | > 200
COc1ccc(C2=NOC3COC4C=CC=CC4OCC23)cc1 (configuration not stated) |  | > 83.2 | > 83.2
CC1OC(OC2C(Oc3c(-c4ccc(O)c(O)c4O)oc4cc(O)ccc4c3=O)OC(CO)C(O)C2O)C(O)C(O)C1O (configuration not stated) |  | > 200 | 21.9
O=C(NCCCCCCNC(=O)c1cc(-c2ccccc2)nc2ccccc12)c1cc(-c2ccccc2)nc2ccccc12 |  | > 200 | > 200
CC(C)CC(NC(=O)C(Cc1ccccc1)NC(=O)CNC(=O)CNC(=O)C(N)Cc1ccc(O)cc1)C(=O)NC1C(O)OC(CO)C(O)C1O (configuration not stated) |  | > 2190 | > 2190
CN(C)CCCNC(=O)c1cc(NC(=O)c2cc(NC(=O)c3cc(NC(=O)c4ccnc(C(=O)Nc5cc(C(=O)Nc6cc(C(=O)Nc7cc(C(=O)NCCCN(C)C)n(C)c7)n(C)c6)n(C)c5)c4)cn3C)cn2C)cn1C |  | > 100 | > 100
C[C@@H]1C2(O)CC34CC(=O)OC3(C[C@@H](O)[C@H]4C)C1(C)CO2 (some centres not stated) |  | > 891 | > 891
CCCC[n+]1ccn(-c2nc3ccccc3n2C)c1 | inactive |  | 
CCCCCCCCCCCCC(=O)NC1=C(O)c2ccccc2C(=O)C1=O | inactive |  | 
Cc1cc2ccc([N+](=O)[O-])cn2c1 |  | > 200 | 115
O/N=C(\c1ccccc1)N1CCCCC1 | inactive |  | 
Cc1cc(N=C2C=C(Br)C(=O)C(Br)=C2)cc(CN(CC(=O)O)CC(=O)O)c1O |  | > 45.7 | 0.501

SMILES | outcome | EC50 [µM] | IC50 [µM]
CCN(CC)CCOC(=O)/C=C/c1ccccc1 | inactive |  | 
NC(=O)NO | inactive |  | 112
O=C(N=Nc1ccccc1Br)NNc1ccccc1Br |  | > 200 | > 100
CCC(=O)c1ccc2[nH]c3c(C)c4c(=O)cc(C)[nH]c4c(C)c3c2c1 |  | > 100 | > 100
Cc1cn(C2CC(O)C(CO)O2)c(=O)n2nnnc12 (configuration not stated) | inactive |  | 
CC1(O)/C(=N/O)CC2CC1C2(C)C (configuration not stated) |  | > 1350 | > 1350
NC(=Nc1ccccc1)N/N=C/c1c[nH]c2ccccc12 |  | > 380 | 0.224
CON1C(=O)C(c2cccs2)=C2SCC=C21 |  | > 170 | 4.27
Cc1cc(Cl)ccc1NC(=O)C1C(=O)N(c2ccc(Cl)cc2C)C(=O)/C1=N\N (configuration not stated) | inactive |  | 
Cc1sc(N)c(S(=O)(=O)c2ccccc2)c1C |  | 166 | 195
Cc1sc2ncnc(N)c2c1C |  | > 275 | > 275
Cc1cc2c(cc1C)NC(=O)C(C)CN2 (configuration not stated) |  | > 200 | > 200
OCCOCn1nc(-c2ccccc2)nc1-c1cnccn1 |  | > 200 | > 200
Cc1cc2c(=O)c3ccccc3oc2c(C#N)c1C |  | > 20 | > 20
COc1ccc(N2C=Nn3c(nc4sc5c(c4c3=O)CCCC5)C2)cc1 |  | > 50.1 | > 50.1
O=c1oc2ccccc2c(O)c1Sc1c(O)c2ccccc2oc1=O | inactive |  | 
